Earlier results, collected in US20180228837A1, “STABLE IODINE SOLUTIONS WITH MEDICAL APPLICATIONS” (priority 2017, published 2018).
Where two headings read alike, the source gives them in different places.

Legend:
[1] = system: dermal wounds; settings: dermal wounds of rabbits
[2] = system: wound chambers and full thickness wounds; settings: rats; injected in one area of the body, healing at distant areas
[3] = system: wound chambers and full thickness wounds; settings: mice; injected in one area of the body, healing at distant areas
[4] = system: wound chambers and full thickness wounds; settings: pigs; injected in one area of the body, healing at distant areas
[5] = system: wounds; settings: diabetic rats; collagen membrane material
[6] = system: ischemic open wounds; settings: ischemic open wounds in rats; compared with vehicle alone or untreated wounds

copper complex of a glycyl-L-histidyl-L-lysine peptide [GHK-Cu]
wound healing [1]: facilitated wound healing | systemic enhancement of healing [2]: induce a systemic enhancement of healing | systemic enhancement of healing [3]: induce a systemic enhancement of healing | systemic enhancement of healing [4]: induce a systemic enhancement of healing | wound contraction and epithelization [5]: faster wound contraction and epithelization | concentration of metalloproteinases 2 and 9 and of TNF-beta [6]: decreased | wound healing [6]: healed faster
